{
  "source": "patent US11103489B2",
  "about": "“Drug for preventing or treating inflammatory bowel disease” (NATIONAL UNIVERSITY CORPORATION OKAYAMA UNIVERSITY, priority 2015, dated 2021)",
  "key": {"[1]": {"experiment": "Measurement of a blood concentration of a drug after oral administration", "format": "in vivo, ICR mice", "conditions": "single oral dose of 3 mg/kg; at any time (0, 1, 3, 6 h); plasma", "protocol": "1. Six-week old male ICR mice (body weight: 15 to 25 g) were fasted from the evening of the day before the experiment, and a compound solution prepared in [2] below at a volume of 10 mL/kg was orally administered via a stomach tube. At 0, 1, 3, and 6 hours after the administration, the animals were anesthetized with ether, and incised the abdomen to collect blood from a large vein. The blood was transferred into a heparinized tube and centrifuged at 5000 rpm for 5 minutes, to collect 100 μL of plasma. Each treated group had five mice.\n2. A dose of the compound was 30, 3, 0.3 mg/kg per an animal. A dosage form of the compound was prepared by dissolving it in ethanol to a final concentration of 1% and suspending the solution in a 0.5% solution of carboxymethylcellulose (CMC).\n3. To 100 μL of the plasma were added 100 μL of an ammonium acetate buffer (prepared by adding acetic acid to 5 mM of ammonium acetate and adjusting a pH to 5), and then 1 mL of ethyl acetate. The mixture was vortexed for 30 min, allowed to stand at room temperature for 10 min and centrifuged for 30 sec to remove 800 μL of a supernatant, which was then concentrated by a centrifugal evaporator. The residue was stored at −20° C.\n4. […] Then, for 20 μL of the sample, a compound concentration was determined by HPLC or LCMS. […]"}, "[2]": {"conditions": "cited from earlier work"}, "Raw264.7 cells": {"system": "Raw264.7 cells", "experiment": "Inhibitory effect on LPS-stimulated NO production (Griess assay)", "conditions": "LPS 100 ng/mL; for LPS-stimulated NO production: 48 hours; for NO-production inhibitory effect in combination with RU486 (GR antagonist): combined with 1 μM of RU486"}, "[3]": {"experiment": "Measurement of a drug concentration in a large intestine", "format": "in vivo, ICR mice", "conditions": "the next day after 3 day administration", "protocol": "1. The next day of the last medication (day 3 of medication), a mouse used in Example 2 was euthanized with ether and then a large intestine was excised.\n2. Faces were removed from the removed large intestine and the inside of the large intestine was washed with PBS. Excess water was removed with Kimwipes.\n3. About 200 mg of the above large intestine was precisely placed in a 2 mL Eppendorf tube.\n4. To the Eppendorf tube was added 800 μL of HPLC-grade methanol, and the mixture was pulverized by a homogenizer. Methanol was further added such that the total volume of methanol added became five times as much as the volume of the large intestine.\n5. The mixture was ultrasonic-extracted for 20 min.\n6. After the extraction, the extract was centrifuged at 4° C. and 1,500×g for 20 min.\n7. After the centrifugation, about 1 mL of the supernatant was filtered through a syringe filter and poured into a 2 mL Eppendorf tube.\n9. Since extraction with […] of methanol was conducted assuming that 200 mg of the above […] corresponded to 200 μL, a concentration in a large intestine was estimated by multiplying the concentration in methanol determined by LC/MS by 5."}, "DSS colitis model mice [4]": {"system": "DSS colitis model mice", "experiment": "DSS (2% aqueous solution) colitis model mice, drug efficacy and side effects (3)", "format": "in vivo, C57BL/6 mice", "conditions": "2% DSS", "protocol": "(§1) 1. Six-week old (body weight: 20 g) male C57BL/6 mice were purchased and acclimated for 5 to 7 days.\n(§2) 2. An average weight was mated between groups having 5 to 6 animals.\n(§3) 3. A DSS untreated group (normal) had free access to mineral water filtered through a […] membrane filter. A DSS […] group (vehicle and drug group) had free access to mineral water containing 2% dextran sulfate sodium (DSS) filtered through a […] membrane filter for 6 days and then mineral water filtered through a 0.22 μM membrane filter.\n(§4) 4. After initiation of free access to DSS-containing water, a body weight was measured every day and then an evaluated drug was orally administered.\n(§5) 6. An orally administered solution was prepared by dissolving the drug in ethanol to a final concentration of 1% and suspending the solution in a 0.5% solution of carboxymethylcellulose (CMC).\n(§6) 7. The drug was administered for 11 days, and the next day, a mouse was euthanized followed by blood collection and dissection. A large intestine and a spleen were isolated. A large intestine length was measured and photographs of the large intestine and the spleen were taken. A section of the large intestine was taken and photographed."}, "DSS colitis model mice [5]": {"system": "DSS colitis model mice", "experiment": "DSS (3% aqueous solution) colitis model mice, drug efficacy and side effects (2)", "format": "in vivo, C57BL/6 mice", "conditions": "3% DSS", "protocol": "as §1, §2\n3. A DSS untreated group (normal) had free access to mineral water filtered through a […] membrane filter. […]\nas §4, §5, §6"}, "DSS colitis model mice [6]": {"system": "DSS colitis model mice", "experiment": "DSS (2% aqueous solution) colitis model mice, drug efficacy and side effects (1)", "format": "in vivo, C57BL/6 mice", "protocol": "as §1, §2, §3, §4, §5, §6\n8. The collected blood was heparinized to give plasma, which was used for determining a blood triglyceride (TG)."}, "[7]": {"experiment": "Measurement of a drug concentration in feces", "format": "in vivo, ICR mice", "conditions": "for concentration in feces: oral gavage", "protocol": "1. For each treated group, four six-week old male ICR mice (body weight: 35 to 40 g) were used.\n2. An orally-administered solution was prepared by dissolving it in ethanol to a final concentration of 1% and suspending the solution in a 0.5% solution of carboxymethylcellulose (CMC).\n3. Each mouse was housed in a cage and had free access to feed and water.\n4. After a body weight was measured at 10 a.m., the animal was gavaged with an evaluated drug via a feeding tube.\n5. From the next day, feces in each cage were collected for 3 days.\n6. Hundred milligrams of the feces were dried under vacuum at 40° C. and pulverized in a mortar. Then, 1.5 mL of HPLC-grade methanol was added, followed by ultrasonic extraction for 20 min.\n7. After the extraction, the mixture was centrifuged at 4° C. and 1,500×g for 20 min.\n8. After the centrifugation, 1 mL of the supernatant was filtered through a syringe filter and poured into a 2 mL Eppendorf tube.\n9. […] The concentration was converted to a concentration per 100 mg of feces.\n10. Since extraction with 1.5 mL of methanol was conducted assuming that 100 mg of the above feces corresponded to 100 μL, a concentration in feces was estimated by multiplying the concentration in methanol determined by LC/MS by […]."}, "RXR": {"system": "RXR", "conditions": "cited from earlier work"}, "[8]": {"conditions": "2% DSS, repeated oral dosing at 10 mg/kg/day, in comparison with bexarotene"}, "[9]": {"conditions": "2% DSS, oral 100 mg/kg/day, 11 days"}},
  "note": "“Also recorded” adds a separate entry of the source.",
  "data": [
    {"smiles": "CCN(c1ccc(C(C)C)c(OCC(C)C)c1)c1ccc(C(=O)O)cn1", "note": "[NEt-3IB]", "values": [
      {"measurement": "blood concentration", "setting": "[1]", "value": "< 0.1", "unit": "µM"},
      {"measurement": "absorption in oral administration", "setting": "[2]; reported", "value": "poorly absorbed"},
      {"measurement": "enlarged liver or increase in triglyceride", "setting": "[2]; reportedly, in contrast to a conventional RXR full agonist", "value": "does not cause an enlarged liver or increase in triglyceride"},
      {"measurement": "LPS-stimulated NO production", "setting": "Raw264.7 cells", "value": "inhibited"},
      {"measurement": "NO-production inhibitory effect in combination with RU486 (GR antagonist)", "setting": "Raw264.7 cells", "value": "not inhibited"},
      {"measurement": "concentration in a large intestine", "setting": "[3]", "value": "0.0027 ± 0.0003", "unit": "µM"},
      {"measurement": "weight change", "setting": "DSS colitis model mice [4]; oral 10 mg/kg/day", "value": "inhibited body weight reduction"},
      {"measurement": "inhibition of body weight reduction", "setting": "DSS colitis model mice [5]; oral 10 mg/kg/day", "value": "prominent inhibition of body weight reduction"},
      {"measurement": "recovery of a large intestine length", "setting": "DSS colitis model mice [5]; oral 10 mg/kg/day", "value": "recovery of a large intestine length"},
      {"measurement": "improvement in body weight reduction", "setting": "DSS colitis model mice [6]; [8]", "value": "prominent improvement in body weight reduction"},
      {"measurement": "recovery of a large intestine length", "setting": "DSS colitis model mice [6]; [8]", "value": "recovery of a large intestine length"},
      {"measurement": "blood triglyceride (TG)", "setting": "DSS colitis model mice [6]; 2% DSS, repeated oral dosing, compared with bexarotene", "value": "inhibited increase in blood TG; also recorded: increase in a blood triglyceride by the agent was reduced"},
      {"measurement": "anti-inflammatory effect on DSS enteritis", "setting": "DSS colitis model mice [6]; repetitive oral administration, 1 mg/kg/day", "value": "prominent anti-inflammatory effect"},
      {"measurement": "increase in the concentration in feces by repeated administration", "setting": "[7]; 3 day oral administration", "value": "increase in the concentration by repeated administration was not found"},
      {"measurement": "concentration in feces", "setting": "[7]; Day 1", "value": "40 ± 6", "unit": "µM"},
      {"measurement": "concentration in feces", "setting": "[7]; Day 2", "value": "33 ± 4", "unit": "µM"},
      {"measurement": "concentration in feces", "setting": "[7]; Day 3", "value": "22 ± 1", "unit": "µM"}
    ]},
    {"smiles": "CCN(c1ccc(C(C)C)c(OCCOC)c1)c1ccc(C(=O)O)cn1", "note": "[NEt-3ME]", "values": [
      {"measurement": "RXR receptor activation potency relative to NEt-3IB", "setting": "RXR", "value": "less receptor activation potency than NEt-3IB"},
      {"measurement": "effect relative to NEt-3IB", "setting": "DSS colitis model mice [4]; at a dose three times as much as NEt-3IB (30 vs 10 mg/kg/day)", "value": "comparable to NEt-3IB"},
      {"measurement": "weight change", "setting": "DSS colitis model mice [4]; oral 30 mg/kg/day", "value": "inhibited body weight reduction"}
    ]},
    {"smiles": "C[C@]12C=CC(=O)C=C1CC[C@@H]1[C@@H]2[C@@H](O)C[C@@]2(C)[C@H]1CC[C@]2(O)C(=O)CO", "note": "[Prednisolone, prednisolone, reference compound]", "values": [
      {"measurement": "LPS-stimulated NO production", "setting": "Raw264.7 cells", "value": "inhibited"},
      {"measurement": "NO-production inhibitory effect in combination with RU486 (GR antagonist)", "setting": "Raw264.7 cells", "value": "inhibited by combination use of RU486"},
      {"measurement": "anti-inflammatory effect", "setting": "DSS colitis model mice [5]; oral administration at 10 mg/kg/day", "value": "did not exhibit anti-inflammatory effect"}
    ]},
    {"smiles": "O=C(O)c1cc(/N=N/c2ccc(S(=O)(=O)Nc3ccccn3)cc2)ccc1O", "note": "[SASP, salazosulfapyridine, reference compound]", "values": [
      {"measurement": "weight change, improvement effect compared with a vehicle", "setting": "DSS colitis model mice [4]; oral 200 mg×2/kg/day", "value": "did not exhibit improvement effect"}
    ]},
    {"smiles": "Nc1ccc(O)c(C(=O)O)c1", "note": "[5-Aminosalicylic acid, 5-aminosalicylic acid, reference compound]", "values": [
      {"measurement": "improvement in body weight reduction", "setting": "DSS colitis model mice [6]; [9]", "value": "did not contribute to improvement in body weight reduction"},
      {"measurement": "recovery of a large intestine length", "setting": "DSS colitis model mice [6]; [9]", "value": "did not contribute"}
    ]}
  ]
}
